Experimental data from paper PMC11173485, “Connecting GSK-3β Inhibitory Activity with IKK-β or ROCK-1 Inhibition to Target Tau Aggregation and Neuroinflammation in Alzheimer’s Disease—Discovery, In Vitro and In Cellulo Activity of Thiazole-Based Inhibitors” (Molecules, 2024).

Experiments:
[1] = Cytotoxicity, PrestoBlue cell viability assay in HT-22 cells; format: cell-based, mouse; details: mouse, HT-22 hippocampal neuronal cells, 24 h; for viability at 24 h, 1 µM: 1 µM (log C -6); for viability at 24 h, 1 µM / viability at 24 h, 10 µM / viability at 24 h, 50 µM / viability at 24 h, 100 µM / viability at 24 h, 0.1 µM: read-out: neurotoxicity in HT-22 cells, % of cell viability; for viability at 24 h, 10 µM: 10 µM (log C -5); for viability at 24 h, 50 µM: 50 µM (log C -4.3); for viability at 24 h, 100 µM: 100 µM (log C -4); for IC50 at 24 h: PrestoBlue, mean ± SEM, read-out: Cytotoxicity in HT-22 Cells (IC50 x¯ ± SEM µM)
Procedure: (§1) We assessed their cytotoxic effects at five concentrations (0.1, 1, 10, 50, and 100 µM) in HT-22 (mouse hippocampal neuronal cells) and BV-2 (mouse microglial cells) cell lines using a fluorometric assay with PrestoBlue™ cell viability reagent (Table 4, Table S2 in the SI).
(§2) Mouse microglial cells (BV-2) were a generous gift from Professor Bozena Kaminska-Kaczmarek of the Laboratory of Molecular Neurobiology, Neurobiology Center, Nencki Institute of Experimental Biology, Polish Academy of Sciences, Warsaw, Poland. Cells were cultured in Dulbecco’s modified Eagle’s Medium-high glucose (DMEM, Glutamx Thermo Fisher, Waltham, MA, USA) supplemented with 10% inactivated fetal bovine serum (Thermo Fisher), 100 IU/mL penicillin (Merck), and 100 µg/mL streptomycin (Merck). Cells were cultured in flasks (area 175 cm^2, Nunc) and incubated at 37 °C, 5% CO2. To evaluate the level of NO, IL-6, and TNF-α and the effectiveness of the compounds tested, BV-2 microglia cells were cultured in 96-well culture plates (5 × 10^4 cells per well, Falcon). For the measurement of cell viability and cell membrane damage, cells were placed in 96-well culture plates (2 × 10^4 cells per well, Falcon). Before the tests, cells were grown for 24 h in the incubator (37 °C, 5% CO2). Mouse Hippocampal Neuronal Cell Line (HT-22) was a generous gift from Dr Bartosz Pomierny of the Department of Biochemical Toxicology, Jagiellonian University Medical College, Krakow, Poland. Cells were cultured in Dulbecco’s modified Eagle’s Medium-high glucose (DMEM, Glutamx Thermo Fisher) supplemented with 10% inactivated fetal bovine serum (Thermo Fisher), 100 IU/mL penicillin (Merck), and 100 µg/mL streptomycin (Merck). Cells were cultured in flasks (area 175 cm^2, Nunc) and incubated at 37 °C, 5% CO2. For the measurement of cell viability and neuroprotective effects against okadaic acid, cells were placed in 96-well culture plates (2 × 10^4 cells per well, Falcon). Before the tests, cells were grown for 24 h in the incubator (37 °C, 5% CO2).
(§3) Cell viability was evaluated using the PrestoBlue reagent (Thermo Fisher), according to the manufacturer’s procedures. Following 24 h of incubation with the tested molecule, PrestoBlue reagent was added to a microplate well in an amount equal to one-tenth of the remaining medium volume. The resulting mixture was incubated for 15 min at 37 °C, and the fluorescence intensity (EX 530; EM 580 nm) was measured using the plate reader POLARstar Omega, (BMG Labtech, Ortenberg, Germany). The results (viability values) are provided as a percentage of live cells with respect to DMSO (control sample).
(§4) Cytotoxic effects of selected inhibitors in HT-22 mouse hippocampal neuronal cells and BV-2 mouse microglial cells
(§5) Table S2. Cytotoxic effects of selected inhibitors in HT-22 mouse hippocampal neuronal cells and BV-2 mouse microglial cells. neurotoxicity in HT-22 cellsa immunotoxicity in BV-2 cellsa […]
(§6) a % of cell viability at the given concentration of tested compound; mean value ± standard deviation (SD) of triplicates; b half maximal inhibitory concentration of the tested compound; mean value ± standard error of the mean (SEM) of triplicates; c data obtained in log C of 39 of -8.5; -7.5; -6.5; -5.5; -5, respectively; d data obtained in log C of 49 of -7.5; -6.5; -5.5; -4.5; -4. respectively; nt, not tested.

[2] = system: HT-22 (mouse hippocampal neuronal cells); assay: as above; format: cell-based; details: for effect on cell viability in HT-22 cells (in words): 0.1, 1, 10, 50, and 100 µM
Procedure: as §1, §2, §3, §4, §5, §6

[3] = Cytotoxicity, PrestoBlue cell viability assay in BV-2 cells; format: cell-based, mouse; details: mouse, BV-2 microglial cells; for viability at 24 h, 1 µM: 1 µM (log C -6); for viability at 24 h, 50 µM: 50 µM (log C -4.3); for viability at 24 h, 100 µM: 100 µM (log C -4); for IC50 at 24 h: PrestoBlue, mean ± SEM, read-out: Cytotoxicity in BV-2 Cells (IC50 x¯ ± SEM µM)
Procedure: as §1, §2, §3, §4, §5, §6

[4] = system: BV-2 (mouse microglial cells); assay: as above; format: cell-based; details: for effect on cell viability in BV-2 cells (in words): 0.1, 1, 10, 50, and 100 µM
Procedure: as §1, §2, §3, §4, §5, §6

[5] = biological target: GSK-3β (Homo sapiens, UniProt P49841); assay: ADP-Glo kinase assay, GSK-3β inhibition; format: biochemical; design: purchased Promega; details: mean ± SEM; ATP 25 µM
Text: We evaluated the inhibitory activity of the final compounds against GSK-3β, IKK-β, and ROCK-1 kinases using the commercially available ADP-Glo™ kinase assay. The method was based on the measurement of luminescence that correlates with kinase activity. […] The latter are inhibitors of the kinases of interest and were integral to the design of our studies.
Promega’s Kinase Enzyme Systems (Promega; Madison, WI, USA) were used to determine the activities of the tested compounds against the human recombinant kinases GSK-3β, IKK- β, and ROCK-1. The assays were performed according to the provided manufacturer’s instruction, based on the optimized conditions of the enzymatic reactions, using the low-volume, white polystyrene, 384-well plates. The ADP-Glo™ Assay (Promega; Madison, WI, USA) was used for bioluminescent detection of the kinase activity. Stock solutions of the tested compounds in DMSO (1mM) were diluted with the Kinase Assay Buffer before use (40 mM Tris, pH 7.5, enriched with 50 µM dithiothreitol; DTT), giving the final desired concentrations. The kinase enzymes, substrates, and ATP solutions were also diluted with the assay buffer prior to use. The GSK-3β, IKK-β, and ROCK-1 substrates were derived from human muscle glycogen synthase 1, human IkBA, and human 40S ribosomal protein S6, respectively. The assay procedure was as follows: At first, the appropriate kinase enzyme (GSK-3β: 10 ng per well; IKK-β: 45 ng per well; ROCK-1: 24 ng per well) was incubated with the tested sample (10 µM in well) for 5 min. The DMSO solution (1% in well) was used in the blank samples instead of the tested inhibitors. After the incubation period, ATP (25 µM per well in the case of GSK-3β and IKK-β kinases; 5 µM per well in the case of ROCK-1 kinase) and an appropriate enzyme substrate (0.2 µg/µL in well) were added to start the enzymatic reaction. The reaction mixture was kept at room temperature for 1 h; then, the ADP-Glo™ reagent was added, to terminate the kinase reaction and deplete any remaining ATP. After 40 min, a second reagent (Kinase Detection Reagent) was applied to convert the obtained ADP to ATP and to generate light from the newly synthesized ATP using a luciferase/luciferin reaction. The mixture was incubated for another 30 min at room temperature before the luminescence was measured. The calculations of the percent of kinases’ inhibition by tested compounds were based on the equation 100 − (S/B) × 100; S and B are the enzyme activities with and without the tested sample, respectively. […] Each compound was evaluated in two independent experiments, with every data point collected in duplicate.

[6] = 24 h, read-out: immunotoxicity in BV-2 cells, % of cell viability
[7] = 10 µM (log C -5), 24 h, read-out: immunotoxicity in BV-2 cells, % of cell viability

Sequence of GSK-3β (P49841 whole entry): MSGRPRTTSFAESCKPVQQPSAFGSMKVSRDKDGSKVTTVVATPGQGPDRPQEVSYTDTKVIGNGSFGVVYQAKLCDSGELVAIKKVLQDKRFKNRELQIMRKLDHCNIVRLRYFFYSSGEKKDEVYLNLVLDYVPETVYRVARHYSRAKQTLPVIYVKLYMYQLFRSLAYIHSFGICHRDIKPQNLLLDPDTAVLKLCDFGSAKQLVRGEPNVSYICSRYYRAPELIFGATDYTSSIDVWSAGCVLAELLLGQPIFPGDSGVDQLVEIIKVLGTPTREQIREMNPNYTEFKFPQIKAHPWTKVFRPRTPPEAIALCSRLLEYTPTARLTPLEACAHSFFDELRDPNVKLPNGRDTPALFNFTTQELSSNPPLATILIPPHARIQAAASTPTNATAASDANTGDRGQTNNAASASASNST

Compound | viability at 24 h, 1 µM [1] | viability at 24 h, 10 µM [1] | viability at 24 h, 50 µM [1] | viability at 24 h, 100 µM [1] | IC50 at 24 h [1] | viability at 24 h, 0.1 µM [1] | effect on cell viability in HT-22 cells (in words) [2] | viability at 24 h, 1 µM [3, 6] | viability at 24 h, 10 µM [3, 7] | viability at 24 h, 50 µM [3, 6] | viability at 24 h, 100 µM [3, 6] | IC50 at 24 h ([3]; 24 h) | viability at 24 h, 0.1 µM [3, 6] | effect on cell viability in BV-2 cells (in words) [4] | IC50 [5] | viability at 24 h, 10 µM ([3]; log C -5 (footnote c; printed in column 100 µM), read-out: immunotoxicity in BV-2 cells, % of cell viability) | viability at 24 h, 3.16 µM ([3]; log C -5.5 (footnote c; printed in column 50 µM), read-out: immunotoxicity in BV-2 cells, % of cell viability) | viability at 24 h, 0.316 µM ([3]; log C -6.5 (footnote c; printed in column 10 µM), read-out: immunotoxicity in BV-2 cells, % of cell viability) | effect on viability of HT-22 cells at concentrations up to 10 µM (in words) ([2]; up to 10 µM) | effect on viability of BV-2 cells at concentrations up to 10 µM (in words) ([4]; up to 10 µM)
O=C1NC2(CCCC2)Nc2cc(-c3ccnc(NC(=O)C4CC4)c3)sc21 [Compound 60, N-(4-(4’-Oxo-3’,4’-dihydro-1’H-spiro[cyclopentane-1,2’-thieno [3,2-d]pyrimidin]-6’-yl)pyridin-2-yl)cyclopropanecarboxamide] | 105% | 62% | 36% | 31% | 9.7 ± 5.8 µM | 101% | decreased cells’ viability | 101% | 9% | 3% | 3% | 3 µM | 108% | decreased cells’ viability | 0.01 µM |  |  |  |  | 
CC(C)C(=O)Nc1cc(-c2cc3c(s2)C(=O)NC(C)(C)N3)ccn1 [Compound 39, N-(4-(2,2-Dimethyl-4-oxo-1,2,3,4-tetrahydrothieno [3,2-d]pyrimidin-6-yl)pyridin-2-yl)isobutyramide] | 84% | 55% | 35% | 29% | 8.4 ± 5.3 µM | 91% | decreased cells’ viability |  |  |  |  | 4.5 ± 1.9 µM |  | decreased cells’ viability | 0.012 µM | 14% | 73% | 105% |  | 
CC1(C)NC(=O)c2sc(-c3ccnc(NC(=O)C4CC4)c3)cc2N1 [Compound 40, N-(4-(2,2-Dimethyl-4-oxo-1,2,3,4-tetrahydrothieno [3,2-d]pyrimidin-6-yl)pyridin-2-yl)-cyclopropanecarboxamide] | 105% | 71% | 28% | 21% | 19.9 ± 4.1 µM | 100% | decreased cells’ viability | 109% | 9% | 2% | 2% | 3.6 ± 0.7 µM | 106% | decreased cells’ viability | 0.01 µM |  |  |  |  | 
O=C1NC2(CCOC2)Nc2cc(-c3ccnc(NC(=O)C4CC4)c3)sc21 (stereo not drawn) [Compound 62, N-(4-(4′-Oxo-3′,4,4′,5-tetrahydro-1′H,2H-spiro[furan-3,2′-thieno [3,2-d]pyrimidin]-6′-yl)pyridin-2-yl)cyclopropanecarboxamide] | 108% | 105% | 35% | 29% | 58.3 ± 10 µM | 106% | decreased cells’ viability | 106% | 105% | 5% | 2% | 54.8 ± 1.9 µM | 105% | decreased cells’ viability | 0.008 µM |  |  |  | did not decrease the viability of the cells | did not decrease the viability of the cells
NC(=O)Nc1cc(-c2ccnc(NC(=O)C3CCC3)c2)sc1C(N)=O [Compound 50, 5-(2-(Cyclobutanecarboxamido)pyridin-4-yl)-3-ureidothiophene-2-carboxamide] |  |  |  |  |  |  | no significant decrease in cell viability | 107% | 114% | 96% | 50% | > 100 µM | 101% | no significant decrease in cell viability | 0.034 µM |  |  |  |  | 
CC1(C)NC(=O)c2sc(-c3ccnc(NC(=O)C4CCC4)c3)cc2N1 [Compound 41, N-(4-(2,2-Dimethyl-4-oxo-1,2,3,4-tetrahydrothieno [3,2-d]pyrimidin-6-yl)pyridin-2-yl)-cyclobutanecarboxamide] |  |  |  |  |  |  | decreased cells’ viability |  |  |  |  |  |  | decreased cells’ viability | 0.032 ± 0.001 µM |  |  |  |  | 
